In the NIST ThermoML archive (doi:10.1021/je020125e):
Where “and” joins values, the source holds several entries; their conditions need not be identical. Equal entries are not always repeated. Numbers after ± are expanded uncertainties.

Conditions: 101.33 kPa, Liquid, Hot wire method

Compound `CCCC(C)CC` (stereo not given) [3-methylhexane] has a thermal conductivity (256.62 K) of 0.1236 ± 0.00085 W/m/K, a thermal conductivity (257 K) of 0.1233 ± 0.00085 W/m/K and a thermal conductivity (257.38 K) of 0.1231 ± 0.00085 W/m/K. The thermal diffusivity (257.59 K) was 8.59e-08 ± 1.6e-09 m2/s, the thermal diffusivity (258.63 K) was 8.5e-08 ± 1.6e-09 m2/s and the thermal diffusivity (259.54 K) was 8.43e-08 ± 1.6e-09 m2/s. It also gave a thermal conductivity (269.72 K) of 0.1196 ± 0.00082 W/m/K, a thermal conductivity (270.11 K) of 0.1193 ± 0.00082 W/m/K and a thermal conductivity (270.44 K) of 0.1191 ± 0.00082 W/m/K. The thermal diffusivity (270.7 K) was 8.14e-08 ± 1.5e-09 m2/s, the thermal diffusivity (271.73 K) was 8.1e-08 ± 1.5e-09 m2/s and the thermal diffusivity (272.58 K) was 8.04e-08 ± 1.5e-09 m2/s. The thermal conductivity (284.9 K) was 0.115 ± 0.0008 W/m/K, the thermal conductivity (285.32 K) was 0.1148 ± 0.0008 W/m/K and the thermal conductivity (285.66 K) was 0.1146 ± 0.00079 W/m/K. It also gave a thermal diffusivity (285.92 K) of 7.81e-08 ± 1.5e-09 m2/s, a thermal diffusivity (287.01 K) of 7.78e-08 ± 1.5e-09 m2/s and a thermal diffusivity (287.89 K) of 7.72e-08 ± 1.4e-09 m2/s. It also gave a thermal conductivity (296.55 K) of 0.1113 ± 0.00077 W/m/K, a thermal conductivity (296.95 K) of 0.1113 ± 0.00077 W/m/K and a thermal conductivity (297.35 K) of 0.111 ± 0.00077 W/m/K. It also gave a thermal diffusivity (297.62 K) of 7.5e-08 ± 1.4e-09 m2/s, a thermal diffusivity (298.65 K) of 7.47e-08 ± 1.4e-09 m2/s and a thermal diffusivity (299.67 K) of 7.41e-08 ± 1.4e-09 m2/s. For the same compound, the thermal conductivity (311.54 K) was 0.1073 ± 0.00075 W/m/K, the thermal conductivity (311.97 K) was 0.107 ± 0.00075 W/m/K and the thermal conductivity (312.34 K) was 0.1068 ± 0.00074 W/m/K. It also gave a thermal diffusivity (312.6 K) of 7.22e-08 ± 1.4e-09 m2/s, a thermal diffusivity (313.66 K) of 7.08e-08 ± 1.3e-09 m2/s and a thermal diffusivity (314.6 K) of 7.07e-08 ± 1.3e-09 m2/s. It also gave a thermal conductivity (321.52 K) of 0.1046 ± 0.00073 W/m/K, a thermal conductivity (321.98 K) of 0.1042 ± 0.00073 W/m/K and a thermal conductivity (322.34 K) of 0.104 ± 0.00073 W/m/K. The thermal diffusivity (322.62 K) was 7.02e-08 ± 1.3e-09 m2/s, the thermal diffusivity (323.75 K) was 6.94e-08 ± 1.3e-09 m2/s and the thermal diffusivity (324.66 K) was 6.86e-08 m2/s and 6.87e-08 m2/s. It also gave a thermal conductivity (332.24 K) of 0.1017 ± 0.00072 W/m/K, a thermal conductivity (332.69 K) of 0.1013 ± 0.00071 W/m/K and a thermal conductivity (333.09 K) of 0.1011 ± 0.00071 W/m/K. For the same compound, the thermal diffusivity (333.3 K) was 6.69e-08 ± 1.3e-09 m2/s, the thermal diffusivity (334.41 K) was 6.61e-08 ± 1.3e-09 m2/s and the thermal diffusivity (335.4 K) was 6.61e-08 ± 1.3e-09 m2/s. The thermal conductivity (343.42 K) was 0.09857 ± 0.0007 W/m/K, the thermal conductivity (343.89 K) was 0.09831 ± 0.00069 W/m/K and the thermal conductivity (344.28 K) was 0.09813 ± 0.00069 W/m/K. For the same compound, the thermal conductivity (344.3 K) was 0.09807 ± 0.00069 W/m/K, the thermal diffusivity (344.46 K) was 6.42e-08 ± 1.2e-09 m2/s and the thermal diffusivity (345.61 K) was 6.37e-08 ± 1.2e-09 m2/s. The thermal diffusivity (346.56 K) was 6.32e-08 ± 1.2e-09 m2/s and the thermal diffusivity (346.62 K) was 6.37e-08 ± 1.2e-09 m2/s.

Work on `CCC(C)CC` [3-methylpentane] yielded a thermal conductivity (256.68 K) of 0.1196 ± 0.00097 W/m/K, a thermal conductivity (257 K) of 0.1195 ± 0.00097 W/m/K and a thermal conductivity (257.43 K) of 0.1193 ± 0.00097 W/m/K. The thermal diffusivity (257.89 K) was 8.31e-08 ± 1.6e-09 m2/s, the thermal diffusivity (258.67 K) was 8.27e-08 ± 1.6e-09 m2/s and the thermal diffusivity (259.75 K) was 8.22e-08 ± 1.6e-09 m2/s. The thermal conductivity (276.71 K) was 0.1129 ± 0.00092 W/m/K, the thermal conductivity (277.02 K) was 0.1128 ± 0.00092 W/m/K and the thermal conductivity (277.46 K) was 0.1126 ± 0.00092 W/m/K. It also gave a thermal diffusivity (277.98 K) of 7.74e-08 ± 1.5e-09 m2/s, a thermal diffusivity (278.74 K) of 7.71e-08 ± 1.5e-09 m2/s and a thermal diffusivity (279.82 K) of 7.67e-08 ± 1.5e-09 m2/s. It also gave a thermal conductivity (296.39 K) of 0.1066 ± 0.00087 W/m/K, a thermal conductivity (296.74 K) of 0.1065 ± 0.00087 W/m/K and a thermal conductivity (297.2 K) of 0.1063 ± 0.00087 W/m/K. The thermal diffusivity (297.69 K) was 7.21e-08 ± 1.4e-09 m2/s, the thermal diffusivity (298.55 K) was 7.2e-08 ± 1.4e-09 m2/s and the thermal diffusivity (299.63 K) was 7.16e-08 ± 1.4e-09 m2/s. For the same compound, the thermal conductivity (314.22 K) was 0.1013 ± 0.00084 W/m/K, the thermal conductivity (314.59 K) was 0.1012 ± 0.00083 W/m/K and the thermal conductivity (315.08 K) was 0.101 ± 0.00083 W/m/K. The thermal diffusivity (315.57 K) was 6.8e-08 ± 1.3e-09 m2/s, the thermal diffusivity (316.44 K) was 6.8e-08 ± 1.3e-09 m2/s and the thermal diffusivity (317.58 K) was 6.75e-08 ± 1.3e-09 m2/s. The thermal conductivity (328.36 K) was 0.09736 ± 0.00081 W/m/K, the thermal conductivity (328.75 K) was 0.09723 ± 0.0008 W/m/K and the thermal conductivity (329.26 K) was 0.09705 ± 0.0008 W/m/K. It also gave a thermal diffusivity (329.73 K) of 6.51e-08 ± 1.3e-09 m2/s, a thermal diffusivity (330.64 K) of 6.49e-08 ± 1.3e-09 m2/s and a thermal diffusivity (331.82 K) of 6.44e-08 ± 1.3e-09 m2/s.
